Measured values reported in PubChem BioAssay AID258 (DTP/NCI, 2004).
“And” between values parts separate entries of the source, which are not always exact repeats. Equal entries are not always repeated. Toxic doses and inconclusive results are not listed.

Test system: CD2F1 mice, L1210 leukemia sc, survival T/C
Experiment: NCI In Vivo Anticancer Drug Screen. Data for tumor model L1210 Leukemia (subcutaneous) in CD2F1 (CDF1) mice
Settings: endpoint: median survival time, higher = longer survival
Protocol: The antitumor activity of compounds was measured in mice bearing transplantable tumors. Survival or tumor size were measured and the results are expressed as the measurement made in the treated group (T) divided by the measurement made in the vehicle treated control group (C). The tumor model used in this assay is L1210 Leukemia (subcutaneous) in CD2F1 (CDF1) mice

[1] = dose: 108.0 mg/kg/injection, schedule: Q01DX Z (sc), vehicle: methylcellulose (MC)

Compound: Clc1ccc(CSc2ncnc3nc[nH]c23)cc1
- T/C (dose: 38.9 mg/kg/injection, schedule: Q01DX Z (sc), vehicle: methylcellulose (MC)): 100 % of control
- T/C (dose: 64.8 mg/kg/injection, schedule: Q01DX Z (sc), vehicle: methylcellulose (MC)): 100 % of control
- T/C [1]: 100 % of control
- T/C (dose: 180.0 mg/kg/injection, schedule: Q01DX Z (sc), vehicle: methylcellulose (MC)): 100 % of control
- T/C (dose: 300.0 mg/kg/injection, schedule: Q01DX Z (sc), vehicle: methylcellulose (MC)): 100 % of control
- T/C (dose: 500.0 mg/kg/injection, schedule: Q01DX Z (sc), vehicle: methylcellulose (MC)): 104 % of control

Compound: COc1cccc2c1C(=O)c1c(O)c3c(c(O)c1C2=O)CC(O)(C(=O)CO)CC3OC1CC(N)C(O)C(C)O1 (configuration not stated)
- T/C (dose: 2.9 mg/kg/injection, schedule: Q01DX009 (ip), vehicle: saline): 104 % of control
- T/C (dose: 5.8 mg/kg/injection, schedule: Q01DX009 (ip), vehicle: saline): 105 % of control
- T/C (dose: 11.7 mg/kg/injection, schedule: Q01DX009 (ip), vehicle: saline): 106 % of control
- T/C (dose: 23.4 mg/kg/injection, schedule: Q01DX009 (ip), vehicle: saline): 115 % of control
- T/C (dose: 46.8 mg/kg/injection, schedule: Q01DX009 (ip), vehicle: saline): 111 % of control

Compound: CC[C@@]1(O)C(=O)OCc2c1cc1n(c2=O)Cc2cc3ccccc3nc2-1
- T/C (dose: 0.13 mg/kg/injection, schedule: Q01DX Z (sc), vehicle: carboxymethylcellulose (CMC)): 111 % of control
- T/C (dose: 0.22 mg/kg/injection, schedule: Q01DX Z (sc), vehicle: carboxymethylcellulose (CMC)): 111 % of control
- T/C (dose: 0.6 mg/kg/injection, schedule: Q01DX Z (sc), vehicle: carboxymethylcellulose (CMC)): 111 % of control
- T/C (dose: 1.0 mg/kg/injection, schedule: Q01DX Z (sc), vehicle: carboxymethylcellulose (CMC)): 122 % of control

Compound: CN(Cc1cnc2nc(N)nc(N)c2n1)c1c(Cl)cc(C(=O)NC(CCC(=O)O)C(=O)O)cc1Cl (configuration not stated)
- T/C (dose: 5.83 mg/kg/injection, schedule: Q#A X Z (oral), vehicle: other): 163 % of control
- T/C (dose: 8.1 mg/kg/injection, schedule: Q#A X Z (oral), vehicle: other): 220 % of control
- T/C (dose: 8.1 mg/kg/injection, schedule: Q#A X Z (sc), vehicle: other): 655 % of control
- T/C (dose: 9.72 mg/kg/injection, schedule: Q#A X Z (oral), vehicle: other): 204 % of control
- T/C (dose: 9.72 mg/kg/injection, schedule: Q#A X Z (sc), vehicle: other): 345 % of control
- T/C (dose: 13.5 mg/kg/injection, schedule: Q#A X Z (oral), vehicle: other): 230 % of control
- T/C (dose: 13.5 mg/kg/injection, schedule: Q#A X Z (sc), vehicle: other): 730 % of control
- T/C (dose: 16.2 mg/kg/injection, schedule: Q#A X Z (sc), vehicle: other): 322 % of control
- T/C (dose: 22.5 mg/kg/injection, schedule: Q#A X Z (oral), vehicle: other): 190 % of control
- T/C (dose: 22.5 mg/kg/injection, schedule: Q#A X Z (sc), vehicle: other): 690 % of control
- T/C (dose: 25.0 mg/kg/injection, schedule: Q01DX Z (sc), vehicle: other): 500 % of control
- T/C (dose: 27.0 mg/kg/injection, schedule: Q01DX Z (oral), vehicle: other): 186 % of control and 215 % of control
- T/C (dose: 27.0 mg/kg/injection, schedule: Q01DX Z (sc), vehicle: other): 331 % of control and 565 % of control and 900 % of control
- T/C (dose: 27.0 mg/kg/injection, schedule: Q#A X Z (sc), vehicle: other): 786 % of control
- T/C (dose: 28.0 mg/kg/injection, schedule: Q01DX Z (oral), vehicle: other): 194 % of control
- T/C (dose: 37.5 mg/kg/injection, schedule: Q#A X Z (oral), vehicle: other): 175 % of control
- T/C (dose: 37.5 mg/kg/injection, schedule: Q#A X Z (sc), vehicle: other): 565 % of control
- T/C (dose: 45.0 mg/kg/injection, schedule: Q01DX Z (oral), vehicle: other): 181 % of control and 210 % of control
- T/C (dose: 45.0 mg/kg/injection, schedule: Q01DX Z (sc), vehicle: other): 363 % of control and 825 % of control
- T/C (dose: 47.0 mg/kg/injection, schedule: Q01DX Z (oral), vehicle: other): 222 % of control
- T/C (dose: 47.0 mg/kg/injection, schedule: Q01DX Z (sc), vehicle: other): 816 % of control
- T/C (dose: 50.0 mg/kg/injection, schedule: Q01DX Z (sc), vehicle: other): 500 % of control
- T/C (dose: 62.5 mg/kg/injection, schedule: Q#A X Z (sc), vehicle: other): 175 % of control
- T/C (dose: 75.0 mg/kg/injection, schedule: Q01DX Z (oral), vehicle: other): 159 % of control and 190 % of control
- T/C (dose: 75.0 mg/kg/injection, schedule: Q01DX Z (sc), vehicle: other): 231 % of control and 554 % of control and 800 % of control
- T/C (dose: 75.0 mg/kg/injection, schedule: Q03DX Z (oral), vehicle: other): 100 % of control
- T/C (dose: 75.0 mg/kg/injection, schedule: Q#A X Z (oral), vehicle: other): 122 % of control
- T/C (dose: 78.0 mg/kg/injection, schedule: Q01DX Z (oral), vehicle: other): 188 % of control
- T/C (dose: 78.0 mg/kg/injection, schedule: Q01DX Z (sc), vehicle: other): 272 % of control
- T/C (dose: 108.0 mg/kg/injection, schedule: Q## X Z (oral), vehicle: other): 110 % of control
- T/C (dose: 108.0 mg/kg/injection, schedule: Q## X Z (sc), vehicle: other): 115 % of control
- T/C (dose: 125.0 mg/kg/injection, schedule: Q01DX Z (oral), vehicle: other): 172 % of control and 200 % of control
- T/C (dose: 125.0 mg/kg/injection, schedule: Q01DX Z (sc), vehicle: other): 205 % of control
- T/C (dose: 125.0 mg/kg/injection, schedule: Q03DX Z (oral), vehicle: other): 100 % of control
- T/C (dose: 125.0 mg/kg/injection, schedule: Q03DX Z (sc), vehicle: other): 513 % of control
- T/C (dose: 130.0 mg/kg/injection, schedule: Q01DX Z (oral), vehicle: other): 200 % of control
- T/C (dose: 130.0 mg/kg/injection, schedule: Q01DX Z (sc), vehicle: other): 194 % of control
- T/C (dose: 180.0 mg/kg/injection, schedule: Q## X Z (oral), vehicle: other): 115 % of control
- T/C (dose: 180.0 mg/kg/injection, schedule: Q## X Z (sc), vehicle: other): 115 % of control
- T/C (dose: 208.0 mg/kg/injection, schedule: Q03DX Z (oral), vehicle: other): 113 % of control
- T/C (dose: 208.0 mg/kg/injection, schedule: Q03DX Z (sc), vehicle: other): 272 % of control
- T/C (dose: 216.0 mg/kg/injection, schedule: Q01DX Z (oral), vehicle: other): 172 % of control
- T/C (dose: 216.0 mg/kg/injection, schedule: Q01DX Z (sc), vehicle: other): 155 % of control
- T/C (dose: 250.0 mg/kg/injection, schedule: Q## X Z (sc), vehicle: other): 500 % of control
- T/C (dose: 300.0 mg/kg/injection, schedule: Q## X Z (oral), vehicle: other): 110 % of control
- T/C (dose: 300.0 mg/kg/injection, schedule: Q## X Z (sc), vehicle: other): 120 % of control
- T/C (dose: 347.0 mg/kg/injection, schedule: Q03DX Z (oral), vehicle: other): 109 % of control
- T/C (dose: 347.0 mg/kg/injection, schedule: Q03DX Z (sc), vehicle: other): 195 % of control
- T/C (dose: 360.0 mg/kg/injection, schedule: Q01DX Z (oral), vehicle: other): 166 % of control
- T/C (dose: 500.0 mg/kg/injection, schedule: Q## X Z (oral), vehicle: other): 115 % of control
- T/C (dose: 500.0 mg/kg/injection, schedule: Q## X Z (sc), vehicle: other): 370 % of control and 500 % of control
- T/C (dose: 577.0 mg/kg/injection, schedule: Q03DX Z (oral), vehicle: other): 150 % of control
- T/C (dose: 577.0 mg/kg/injection, schedule: Q03DX Z (sc), vehicle: other): 209 % of control
- T/C (dose: 833.0 mg/kg/injection, schedule: Q## X Z (oral), vehicle: other): 155 % of control
- T/C (dose: 833.0 mg/kg/injection, schedule: Q## X Z (sc), vehicle: other): 360 % of control
- T/C (dose: 961.0 mg/kg/injection, schedule: Q03DX Z (oral), vehicle: other): 122 % of control
- T/C (dose: 961.0 mg/kg/injection, schedule: Q03DX Z (sc), vehicle: other): 172 % of control

Compound: c1ccc(CNc2ncnc3[nH]ncc23)cc1
- T/C (dose: 8.4 mg/kg/injection, schedule: Q01DX Z (sc), vehicle: methylcellulose (MC)): 105 % of control
- T/C (dose: 14.0 mg/kg/injection, schedule: Q01DX Z (sc), vehicle: methylcellulose (MC)): 100 % of control
- T/C (dose: 23.0 mg/kg/injection, schedule: Q01DX Z (sc), vehicle: methylcellulose (MC)): 100 % of control
- T/C (dose: 39.0 mg/kg/injection, schedule: Q01DX Z (sc), vehicle: methylcellulose (MC)): 100 % of control
- T/C (dose: 65.0 mg/kg/injection, schedule: Q01DX Z (sc), vehicle: methylcellulose (MC)): 111 % of control
- T/C [1]: 122 % of control

Compound: CS(=O)(=O)OCCCCCCCCCOS(C)(=O)=O
- T/C (dose: 47.0 mg/kg/injection, schedule: Q01DX Z (sc), vehicle: carboxymethylcellulose (CMC)): 112 % of control

Compound: C[C@]12C=CC(=O)C=C1CC[C@@H]1[C@@H]2C(=O)C[C@@]2(C)[C@H]1CC[C@]2(O)C(=O)CO
- T/C (dose: 180.0 mg/kg/injection, schedule: Q01DX Z (sc), vehicle: water): 122 % of control
- T/C (dose: 180.0 mg/kg/injection, schedule: Q02DX Z (sc), vehicle: water): 154 % of control
- T/C (dose: 500.0 mg/kg/injection, schedule: Q#A X Z (sc), vehicle: water): 122 % of control
